Article PMC11666850, “Development and evaluation of deuterated [^18F]JHU94620 isotopologues for the non-invasive assessment of the cannabinoid type 2 receptor in brain” (EJNMMI Radiopharmacy and Chemistry, 2024)

Legend:
[1] = Ex vivo radiometabolite analysis in CD-1 mice
Description: Female adult CD-1 mice (25–42 g body weight) were used for radiometabolite analysis of [^18F]JHU94620-d4 (n = 2, 33 and 34 MBq) and [^18F]JHU94620-d8 (n = 3, 26–33 MBq) at 30 min after intravenous tail vein injection of the radiotracer to allow for the comparison of radiometabolite analysis of [^18F]JHU94620 (Moldovan et al. [2016]). The mice were immobilized by short isoflurane narcosis for the injection of the radiotracer in a restrainer and awakened mice were kept in an isolated cage until euthanisation by cervical dislocation under isoflurane narcosis. Male Wistar rats (n = 12, 613–794 g) were used for radiometabolite analysis of [^18F]JHU94620-d8 at different time points (5, 15, 30 and 60 min p.i.) after intravenous tail vein injection of the radiotracer (37–74 MBq) for the correction of the input function in pharmacokinetic analysis. Rats were kept under isoflurane narcosis (gas mixture: 2.5% isoflurane and O2) on a warmed plate until euthanization by decapitation of deep narcotized animals. Plasma samples were obtained by centrifugation with 5500 g of blood samples for 2 min at 4 °C. Resected tissues brain and spleen were kept on ice and minced for 3 × 20 s with adding 0.5 to 1 mL of 0.9% NaCl using a Precellys lysing kit and Minilys homogenizer (Bertin Technologies SAS, Montigny-le-Bretonneux, France).
The samples were further processed for subsequent radio-chromatographic analyses. Two consecutive extractions were performed in duplicates for plasma and brain determinations. Plasma, brain and spleen samples were added to the four time the volume of an ice-cold MeOH/H2O mixture (9:1, v/v). The samples were vortexed for 3 min, incubated on ice for 5 min and centrifuged at 8,600 g for 5 min. Supernatants were collected and the precipitates were re-dissolved in 100 µL of extraction solvent and the extraction procedure was repeated. The activities of supernatants and precipitates were measured in a γ-counter (1480 WIZARD, Perkin Elmer), and the extraction efficiencies were calculated as the ratio of radioactivity in the supernatant to the radioactivity in the original sample (supernatant + precipitate). The supernatants from both extractions were combined, concentrated at 70 °C under argon stream up to a remaining volume of 100 µL, and subsequently analysed by analytical radio-HPLC (method A or B).

in vitro = in vitro ADME; details: microsomes, pH 7.4
Description: For microsomal incubations liver microsomes from human (HLM, 50 donors, 20 mg/mL) and rat (RLM, Sprague Dawley, 20 mg/mL) were purchased from Thermo Fisher Scientific GmbH (Dreieich, Germany). Testosterone and β-nicotinamide adenine dinucleotide 2′-phosphate reduced tetrasodium salt (NADPH) were purchased from Sigma-Aldrich (Merck KGaA, Darmstadt, Germany) and Dulbecco’s PBS (DPBS) (without Ca^2+ and Mg^2+) was purchased from Biochrom GmbH (Berlin, Germany). Analyses of samples for comparison of radiometabolite patterns were performed by radio-HPLC using method B, for determination of time dependency of the metabolic depletion using method C.
The final concentrations are given in brackets. […] The mixtures were vortexed and shaken gently at 37 °C using the BioShake iQ (QUANTIFOIL Instruments, Jena, Germany) for 5, 10, 15, 30, 45, and 60 min (for HLM) or 15, 30, 45, and 60 min (for RLM). […] The supernatants were separated and analyzed by radio-HPLC to determine the fractions of unchanged [^18F]JHU94620-d8. Efficiencies of extracted activity were determined as described in “Quantification of radiometabolites”. […]
To determine the metabolic stability in HLM and RLM, both the natural logarithm of the determined unchanged percentage of [^18F]JHU94620-d8 was plotted versus incubation time, which allowed the calculation of the in vitro half-lives as described previously (Chai et al. [2022]).

human CB2R (hCB2R) = molecular target: T1, human CB2R (hCB2R) (Homo sapiens, UniProt P34972); experiment: Homologous competition binding, CHO(hCB2R) cell membranes
T1 construct: expressed in transfected cells; host or cells: CHO(hCB2R) cells, obtained from Paul L. Prather, University of Arkansas for Medical Sciences
T1 sequence (P34972 whole entry): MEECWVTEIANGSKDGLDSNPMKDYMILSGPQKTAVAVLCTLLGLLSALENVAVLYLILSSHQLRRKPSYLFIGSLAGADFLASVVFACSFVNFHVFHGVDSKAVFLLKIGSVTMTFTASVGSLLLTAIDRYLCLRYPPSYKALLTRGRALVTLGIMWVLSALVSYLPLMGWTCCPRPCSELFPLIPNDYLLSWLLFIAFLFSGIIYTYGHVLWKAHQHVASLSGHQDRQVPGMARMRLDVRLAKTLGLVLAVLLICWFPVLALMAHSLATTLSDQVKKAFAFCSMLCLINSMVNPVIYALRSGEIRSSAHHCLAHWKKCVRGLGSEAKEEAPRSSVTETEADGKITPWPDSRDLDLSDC
Description: For binding studies crude homogenates of CHO(hCB2R) cells (obtained from Paul L. Prather, Department of Pharmacology and Toxicology, College of Medicine, University of Arkansas for Medical Sciences, USA) were incubated with the reference compound (self-blocking) or the CB2R-specific partial agonist GW405833 (Tocris Bioscience, Bristol, UK) with indicated concentrations at room temperature for 90 min. The total volume of 1 mL of each sample consisted of 600 µL incubation buffer (50 mM Tris HCl pH7.4, 5 mM MgCl2, 1 mM EDTA and 1% Bovine Serum Albumin), 200 µL cell membrane homogenates, 100 µL competitor or binding buffer (total binding) and 100 µl of binding buffer with [^18F]JHU94620-d8 (about 100 kBq per vial, corresponding to 0.8 to 1.6 nM). Incubation was terminated by rapid filtration through a GF-B glass fibre filter, pre-treated with 0.5% PVP with 0.1% Tween 20 solution, using a 48-well cell harvester, washed six times with buffer and filter bound activity was subsequently measured in a γ-counter (1480 WIZARD, Perkin Elmer, Turku, Finland).
The KD values were calculated with GraphPad Prism according to the modified Cheng-Prusoff method for homologous competitive binding studies, where the KD = Ki = IC50—[radioligand] and the Bmax = specific binding / [radioligand] / ((KD + [radioligand])) (Motulsky and Neubig [2000]), assuming a total protein content of 8.2% (1.3 10^–4 µg protein per voxel) in the spleen (Zaia et al. [2000]) or by determining the protein concentration of the cell membrane lysates using a BCA assay (Thermo Scientific, Braunschweig, Germany). The fractional occupancy defined as occupied binding sites per total binding sites is used to describe the binding fraction specifically bound to CB2R compared to unspecific binding, where [L] is the concentration of the ligand at the start of incubation.

[2] = female, CD-1, mouse, in vivo, 30 min

Structure (SMILES): [2H]C([2H])([18F])C([2H])([2H])C([2H])([2H])C([2H])([2H])n1c(C)c(C)s/c1=N\C(=O)C1C(C)(C)C1(C)C [[^18F]JHU94620-d8]
- percentage printed at the radiotracer peak of the representative radio-HPLC chromatogram (Mice) ([1]; CD-1, mouse, in vivo, 30 min): 80%
- parent fraction in brain, higher compared to the non-deuterated isotopologue ([1]; CD-1 mice, brain, 30 min p.i.): 50%
- parent fraction in brain ([1]; CD-1 mice, brain, 30 min p.i., mean ± SD): 0.72 ± 0.05
- in vivo metabolic stability (comparison in words) ([1]; female, CD-1, mouse, in vivo, 0.5 h): slightly superior to [^18F]JHU94620-d4
- parent fraction in blood plasma [1, 2]: 0.13 ± 0.04
- parent fraction in spleen [1, 2]: 0.87 ± 0.10
- half-life (in vitro; Sprague Dawley, rat): 10.8 ± 2.4 min
- half-life (in vitro; human): 2.1 ± 0.7 min
- Kd (human CB2R (hCB2R)): 1.47 nM
- Bmax (human CB2R (hCB2R); CHO(hCB2R) cell membrane fractions): 2.7 pmol mg^−1 protein
